Experimental data reported in the kinase profiling compilation of Christmann-Franck et al. (2016).

How the values were obtained:
Assay in all cases: KINOMEscan competition binding
Conditions in all cases: compound 10.0 µM
CSNK2A1 (human) = CSNK2A1 (human) (UniProt P68400)
MAP2K3 (human) = MAP2K3 (human) (UniProt P46734)
MELK (human) = MELK (human) (UniProt Q14680)
PIM2 (human) = PIM2 (human) (UniProt Q9P1W9)
RIOK2 (human) = RIOK2 (human) (UniProt Q9BVS4)
BMP2K (human) = BMP2K (human) (UniProt Q9NSY1)
[1] = tested on: KIT (human), P10721 [V559D/V654A]
ACVR2A (human) = ACVR2A (human) (UniProt P27037)
BMPR1B (human) = BMPR1B (human) (UniProt O00238)
CDK7 (human) = CDK7 (human) (UniProt P50613)
CIT (human) = CIT (human) (UniProt O14578)
STK11 (human) = STK11 (human) (UniProt Q15831)
MKNK2 (human) = MKNK2 (human) (UniProt Q9HBH9)
TLK1 (human) = TLK1 (human) (UniProt Q9UKI8)
PIM1 (human) = PIM1 (human) (UniProt P11309)
TNIK (human) = TNIK (human) (UniProt Q9UKE5)
[2] = tested on: KIT (human), P10721 [V559D]
MYLK3 (human) = MYLK3 (human) (UniProt Q32MK0)
DCLK3 (human) = DCLK3 (human) (UniProt Q9C098)
MAPK15 (human) = MAPK15 (human) (UniProt Q8TD08)
RIOK3 (human) = RIOK3 (human) (UniProt O14730)
TGFBR2 (human) = TGFBR2 (human) (UniProt P37173)
FLT3 (human) = FLT3 (human) (UniProt P36888)
ACVR1 (human) = ACVR1 (human) (UniProt Q04771)
MAP4K2 (human) = MAP4K2 (human) (UniProt Q12851)
KIT (human) = KIT (human) (UniProt P10721)
AURKB (human) = AURKB (human) (UniProt Q96GD4)
[3] = tested on: EIF2AK4 KD2 (human), Q9P2K8 [S808G]
TAOK3 (human) = TAOK3 (human) (UniProt Q9H2K8)
RPS6KA4 KD2 (human) = RPS6KA4 KD2 (human) (UniProt O75676)
SRPK3 (human) = SRPK3 (human) (UniProt Q9UPE1)
CSNK2A2 (human) = CSNK2A2 (human) (UniProt P19784)
MAPK8 (human) = MAPK8 (human) (UniProt P45983)
STK24 (human) = STK24 (human) (UniProt Q9Y6E0)
NEK2 (human) = NEK2 (human) (UniProt P51955)
SRPK2 (human) = SRPK2 (human) (UniProt P78362)
MKNK1 (human) = MKNK1 (human) (UniProt Q9BUB5)
PHKG2 (human) = PHKG2 (human) (UniProt P15735)
GAK (human) = GAK (human) (UniProt O14976)
DAPK1 (human) = DAPK1 (human) (UniProt P53355)
TTK (human) = TTK (human) (UniProt P33981)
CLK4 (human) = CLK4 (human) (UniProt Q9HAZ1)
Sequence of CLK4 (human) (Q9HAZ1 whole entry, looked up): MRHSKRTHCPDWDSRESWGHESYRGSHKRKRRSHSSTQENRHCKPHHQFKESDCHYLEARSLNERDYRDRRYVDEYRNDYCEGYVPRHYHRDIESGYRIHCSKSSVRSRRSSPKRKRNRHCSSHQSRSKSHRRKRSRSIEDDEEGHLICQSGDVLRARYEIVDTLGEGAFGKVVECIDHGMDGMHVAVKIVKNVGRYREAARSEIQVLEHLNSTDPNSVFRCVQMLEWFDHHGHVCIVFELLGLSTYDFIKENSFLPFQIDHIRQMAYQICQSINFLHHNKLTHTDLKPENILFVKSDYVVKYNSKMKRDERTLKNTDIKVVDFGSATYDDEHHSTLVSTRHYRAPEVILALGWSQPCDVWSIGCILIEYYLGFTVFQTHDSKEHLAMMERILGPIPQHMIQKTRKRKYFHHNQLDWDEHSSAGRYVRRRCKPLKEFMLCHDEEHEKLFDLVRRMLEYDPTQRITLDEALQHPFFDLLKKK

Sequence of STK24 (human) (Q9Y6E0 whole entry, looked up): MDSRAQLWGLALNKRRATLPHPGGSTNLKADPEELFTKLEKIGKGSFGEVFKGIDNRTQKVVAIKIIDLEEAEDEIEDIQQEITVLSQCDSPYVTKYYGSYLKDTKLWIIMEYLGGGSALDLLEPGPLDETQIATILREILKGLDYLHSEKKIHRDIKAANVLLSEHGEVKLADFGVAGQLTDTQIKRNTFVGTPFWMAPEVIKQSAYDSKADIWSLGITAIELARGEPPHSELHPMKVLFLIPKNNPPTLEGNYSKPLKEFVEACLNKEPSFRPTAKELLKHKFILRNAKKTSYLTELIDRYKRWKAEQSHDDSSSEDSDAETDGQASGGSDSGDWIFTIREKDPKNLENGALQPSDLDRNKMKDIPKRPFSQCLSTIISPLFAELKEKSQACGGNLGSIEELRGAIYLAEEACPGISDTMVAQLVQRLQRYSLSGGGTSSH
Sequence of RPS6KA4 KD2 (human) (O75676 whole entry, looked up): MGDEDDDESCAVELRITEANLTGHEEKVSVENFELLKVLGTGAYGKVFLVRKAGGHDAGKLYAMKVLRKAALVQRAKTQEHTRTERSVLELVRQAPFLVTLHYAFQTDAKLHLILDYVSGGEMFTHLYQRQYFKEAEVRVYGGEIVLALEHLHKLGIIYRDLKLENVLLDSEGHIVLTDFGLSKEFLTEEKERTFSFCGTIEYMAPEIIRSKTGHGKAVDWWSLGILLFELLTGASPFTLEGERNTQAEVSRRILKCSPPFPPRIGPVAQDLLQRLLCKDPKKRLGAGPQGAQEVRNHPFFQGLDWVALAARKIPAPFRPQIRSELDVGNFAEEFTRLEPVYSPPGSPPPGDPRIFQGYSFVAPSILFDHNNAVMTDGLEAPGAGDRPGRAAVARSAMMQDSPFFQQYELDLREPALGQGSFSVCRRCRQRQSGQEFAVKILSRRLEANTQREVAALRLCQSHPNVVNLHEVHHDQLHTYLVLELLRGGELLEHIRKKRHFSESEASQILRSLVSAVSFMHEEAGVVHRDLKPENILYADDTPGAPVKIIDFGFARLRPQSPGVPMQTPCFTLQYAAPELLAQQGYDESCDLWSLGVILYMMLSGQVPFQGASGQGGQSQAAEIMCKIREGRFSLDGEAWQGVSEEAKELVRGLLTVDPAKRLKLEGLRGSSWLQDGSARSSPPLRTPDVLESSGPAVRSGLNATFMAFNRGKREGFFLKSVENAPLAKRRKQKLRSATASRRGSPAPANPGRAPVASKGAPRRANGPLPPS
Sequence of MELK (human) (Q14680 whole entry, looked up): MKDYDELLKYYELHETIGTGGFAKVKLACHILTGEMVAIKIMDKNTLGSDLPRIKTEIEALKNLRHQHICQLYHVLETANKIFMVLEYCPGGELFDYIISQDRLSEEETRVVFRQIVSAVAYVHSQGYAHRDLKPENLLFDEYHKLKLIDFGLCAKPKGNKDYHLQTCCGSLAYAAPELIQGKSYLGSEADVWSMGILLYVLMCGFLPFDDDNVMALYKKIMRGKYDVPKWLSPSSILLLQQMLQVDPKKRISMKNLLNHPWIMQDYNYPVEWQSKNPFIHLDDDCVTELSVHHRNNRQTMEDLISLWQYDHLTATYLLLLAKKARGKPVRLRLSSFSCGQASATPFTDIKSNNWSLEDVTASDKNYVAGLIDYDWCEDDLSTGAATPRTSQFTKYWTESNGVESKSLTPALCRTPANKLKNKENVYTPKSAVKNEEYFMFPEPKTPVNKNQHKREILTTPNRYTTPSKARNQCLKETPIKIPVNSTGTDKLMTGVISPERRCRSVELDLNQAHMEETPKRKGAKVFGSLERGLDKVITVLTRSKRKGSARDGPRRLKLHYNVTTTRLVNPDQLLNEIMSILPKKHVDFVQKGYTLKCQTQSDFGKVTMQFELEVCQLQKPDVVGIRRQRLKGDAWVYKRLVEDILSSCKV
Sequence of TGFBR2 (human) (P37173 whole entry, looked up): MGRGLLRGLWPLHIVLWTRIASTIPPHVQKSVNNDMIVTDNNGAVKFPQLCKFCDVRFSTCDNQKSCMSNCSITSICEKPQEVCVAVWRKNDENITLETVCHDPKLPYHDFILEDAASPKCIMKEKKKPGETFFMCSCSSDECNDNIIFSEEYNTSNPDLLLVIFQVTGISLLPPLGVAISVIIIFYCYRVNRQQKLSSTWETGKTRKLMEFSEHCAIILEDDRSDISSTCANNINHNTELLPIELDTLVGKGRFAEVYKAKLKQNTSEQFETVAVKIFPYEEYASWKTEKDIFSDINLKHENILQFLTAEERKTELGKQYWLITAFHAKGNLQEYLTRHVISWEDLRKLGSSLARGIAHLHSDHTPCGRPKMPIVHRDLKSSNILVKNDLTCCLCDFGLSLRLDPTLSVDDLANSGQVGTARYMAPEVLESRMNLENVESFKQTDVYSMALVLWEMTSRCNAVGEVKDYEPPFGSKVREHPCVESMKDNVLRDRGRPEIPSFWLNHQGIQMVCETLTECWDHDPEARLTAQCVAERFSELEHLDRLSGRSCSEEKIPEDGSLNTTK
Sequence of SRPK2 (human) (P78362 whole entry, looked up): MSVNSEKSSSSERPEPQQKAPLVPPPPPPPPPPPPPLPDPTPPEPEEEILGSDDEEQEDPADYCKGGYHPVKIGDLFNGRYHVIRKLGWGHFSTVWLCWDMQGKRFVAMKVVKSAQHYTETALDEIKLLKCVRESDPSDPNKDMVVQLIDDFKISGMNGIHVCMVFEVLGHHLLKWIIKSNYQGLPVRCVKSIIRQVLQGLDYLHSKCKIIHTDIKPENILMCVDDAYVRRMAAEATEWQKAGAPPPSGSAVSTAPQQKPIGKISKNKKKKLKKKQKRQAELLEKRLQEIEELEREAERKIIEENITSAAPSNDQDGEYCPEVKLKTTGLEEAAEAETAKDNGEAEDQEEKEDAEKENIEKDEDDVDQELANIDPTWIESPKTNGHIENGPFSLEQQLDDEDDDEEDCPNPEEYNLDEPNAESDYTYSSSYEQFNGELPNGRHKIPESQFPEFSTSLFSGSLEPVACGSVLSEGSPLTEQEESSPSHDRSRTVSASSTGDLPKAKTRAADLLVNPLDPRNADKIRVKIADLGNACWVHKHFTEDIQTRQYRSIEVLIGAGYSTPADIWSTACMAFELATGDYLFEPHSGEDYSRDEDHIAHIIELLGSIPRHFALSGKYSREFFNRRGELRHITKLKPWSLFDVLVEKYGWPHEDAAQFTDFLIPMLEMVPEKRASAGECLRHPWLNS
Sequence of MKNK1 (human) (Q9BUB5 whole entry, looked up): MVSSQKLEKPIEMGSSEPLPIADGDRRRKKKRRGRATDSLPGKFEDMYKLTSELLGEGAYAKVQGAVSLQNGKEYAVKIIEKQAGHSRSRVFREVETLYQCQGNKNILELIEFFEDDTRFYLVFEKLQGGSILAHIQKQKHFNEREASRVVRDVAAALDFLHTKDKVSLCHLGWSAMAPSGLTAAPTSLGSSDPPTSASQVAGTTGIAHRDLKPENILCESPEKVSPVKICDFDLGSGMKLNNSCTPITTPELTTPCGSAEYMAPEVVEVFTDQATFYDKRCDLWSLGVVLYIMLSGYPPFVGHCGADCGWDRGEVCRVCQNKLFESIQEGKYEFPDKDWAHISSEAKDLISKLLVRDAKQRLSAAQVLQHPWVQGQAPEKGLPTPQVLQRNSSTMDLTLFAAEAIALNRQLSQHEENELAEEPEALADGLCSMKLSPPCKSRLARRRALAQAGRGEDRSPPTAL
Sequence of TAOK3 (human) (Q9H2K8 whole entry, looked up): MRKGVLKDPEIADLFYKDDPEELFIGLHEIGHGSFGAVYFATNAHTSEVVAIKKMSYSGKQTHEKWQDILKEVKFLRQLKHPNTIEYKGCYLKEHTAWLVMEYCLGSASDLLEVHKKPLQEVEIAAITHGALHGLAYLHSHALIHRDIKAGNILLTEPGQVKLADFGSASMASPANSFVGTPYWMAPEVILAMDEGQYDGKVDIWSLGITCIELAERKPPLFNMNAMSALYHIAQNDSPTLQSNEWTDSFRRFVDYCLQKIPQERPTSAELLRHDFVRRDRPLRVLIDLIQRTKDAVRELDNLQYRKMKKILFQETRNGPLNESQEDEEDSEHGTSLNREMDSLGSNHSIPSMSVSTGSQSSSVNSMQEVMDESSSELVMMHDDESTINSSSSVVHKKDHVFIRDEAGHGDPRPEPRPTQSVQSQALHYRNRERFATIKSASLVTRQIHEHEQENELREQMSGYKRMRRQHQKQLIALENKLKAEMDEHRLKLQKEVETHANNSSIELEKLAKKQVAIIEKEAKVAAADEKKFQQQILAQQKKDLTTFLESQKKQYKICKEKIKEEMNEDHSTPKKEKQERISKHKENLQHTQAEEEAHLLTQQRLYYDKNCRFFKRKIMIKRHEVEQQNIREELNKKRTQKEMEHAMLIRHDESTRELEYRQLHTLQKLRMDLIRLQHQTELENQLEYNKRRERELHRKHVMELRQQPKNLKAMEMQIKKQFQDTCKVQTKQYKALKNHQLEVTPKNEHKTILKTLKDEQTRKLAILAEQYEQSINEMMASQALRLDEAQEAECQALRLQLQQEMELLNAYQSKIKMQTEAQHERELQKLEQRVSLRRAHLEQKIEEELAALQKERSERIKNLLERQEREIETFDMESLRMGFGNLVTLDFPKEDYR

With `CN1C(=O)c2ccccc2N(C)c2nc(Nc3ccc(N4CCC(O)CC4)cc3)ncc21` the kinase still bound, per cent of control (CSNK2A1 (human)) was 86%, the kinase still bound, per cent of control (MAP2K3 (human)) was 84% and the kinase still bound, per cent of control (MELK (human)) was 100%. The kinase still bound, per cent of control (PIM2 (human)) was 100%, the kinase still bound, per cent of control (RIOK2 (human)) was 63% and the kinase still bound, per cent of control (BMP2K (human)) was 43%. The kinase still bound, per cent of control [1] was 58%, the kinase still bound, per cent of control (ACVR2A (human)) was 90% and the kinase still bound, per cent of control (BMPR1B (human)) was 13%. The kinase still bound, per cent of control (CDK7 (human)) was 60%, the kinase still bound, per cent of control (CIT (human)) was 95% and the kinase still bound, per cent of control (STK11 (human)) was 100%. The kinase still bound, per cent of control (MKNK2 (human)) was 8.4%, the kinase still bound, per cent of control (TLK1 (human)) was 69% and the kinase still bound, per cent of control (PIM1 (human)) was 91%. For the same compound, the kinase still bound, per cent of control (TNIK (human)) was 83%, the kinase still bound, per cent of control [2] was 80% and the kinase still bound, per cent of control (MYLK3 (human)) was 100%. The kinase still bound, per cent of control (DCLK3 (human)) was 68%, the kinase still bound, per cent of control (MAPK15 (human)) was 100% and the kinase still bound, per cent of control (RIOK3 (human)) was 82%. It also gave a kinase still bound, per cent of control (TGFBR2 (human)) of 100%, a kinase still bound, per cent of control (FLT3 (human)) of 100% and a kinase still bound, per cent of control (ACVR1 (human)) of 88%. For the same compound, the kinase still bound, per cent of control (MAP4K2 (human)) was 80%, the kinase still bound, per cent of control (KIT (human)) was 66% and the kinase still bound, per cent of control (AURKB (human)) was 1.4%. The kinase still bound, per cent of control [3] was 98%, the kinase still bound, per cent of control (TAOK3 (human)) was 1.2% and the kinase still bound, per cent of control (RPS6KA4 KD2 (human)) was 89%. For the same compound, the kinase still bound, per cent of control (SRPK3 (human)) was 84%, the kinase still bound, per cent of control (CSNK2A2 (human)) was 58% and the kinase still bound, per cent of control (MAPK8 (human)) was 100%. The kinase still bound, per cent of control (STK24 (human)) was 82%, the kinase still bound, per cent of control (NEK2 (human)) was 100% and the kinase still bound, per cent of control (SRPK2 (human)) was 100%. The kinase still bound, per cent of control (MKNK1 (human)) was 28%, the kinase still bound, per cent of control (PHKG2 (human)) was 100% and the kinase still bound, per cent of control (GAK (human)) was 37%. It also gave a kinase still bound, per cent of control (DAPK1 (human)) of 98%, a kinase still bound, per cent of control (TTK (human)) of 78% and a kinase still bound, per cent of control (CLK4 (human)) of 100%.

With `CN1C(=O)c2ccccc2N(C)c2nc(NS(=O)(=O)c3ccc(N)cc3)ncc21` the kinase still bound, per cent of control (CSNK2A1 (human)) was 100%, the kinase still bound, per cent of control (MAP2K3 (human)) was 74% and the kinase still bound, per cent of control (MELK (human)) was 100%. It also gave a kinase still bound, per cent of control (PIM2 (human)) of 100%, a kinase still bound, per cent of control (RIOK2 (human)) of 71% and a kinase still bound, per cent of control (BMP2K (human)) of 100%. It also gave a kinase still bound, per cent of control [1] of 100%, a kinase still bound, per cent of control (ACVR2A (human)) of 100% and a kinase still bound, per cent of control (BMPR1B (human)) of 100%. For the same compound, the kinase still bound, per cent of control (CDK7 (human)) was 91%, the kinase still bound, per cent of control (CIT (human)) was 100% and the kinase still bound, per cent of control (STK11 (human)) was 100%. It also gave a kinase still bound, per cent of control (MKNK2 (human)) of 72%, a kinase still bound, per cent of control (TLK1 (human)) of 100% and a kinase still bound, per cent of control (PIM1 (human)) of 100%. For the same compound, the kinase still bound, per cent of control (TNIK (human)) was 100%, the kinase still bound, per cent of control [2] was 100% and the kinase still bound, per cent of control (MYLK3 (human)) was 100%. It also gave a kinase still bound, per cent of control (DCLK3 (human)) of 100%, a kinase still bound, per cent of control (MAPK15 (human)) of 99% and a kinase still bound, per cent of control (RIOK3 (human)) of 69%. It also gave a kinase still bound, per cent of control (TGFBR2 (human)) of 100%, a kinase still bound, per cent of control (FLT3 (human)) of 100% and a kinase still bound, per cent of control (ACVR1 (human)) of 100%. It also gave a kinase still bound, per cent of control (MAP4K2 (human)) of 80%, a kinase still bound, per cent of control (KIT (human)) of 76% and a kinase still bound, per cent of control (AURKB (human)) of 100%. It also gave a kinase still bound, per cent of control [3] of 100%, a kinase still bound, per cent of control (TAOK3 (human)) of 72% and a kinase still bound, per cent of control (RPS6KA4 KD2 (human)) of 100%. The kinase still bound, per cent of control (SRPK3 (human)) was 100%, the kinase still bound, per cent of control (CSNK2A2 (human)) was 76% and the kinase still bound, per cent of control (MAPK8 (human)) was 100%. The kinase still bound, per cent of control (STK24 (human)) was 100%, the kinase still bound, per cent of control (NEK2 (human)) was 100% and the kinase still bound, per cent of control (SRPK2 (human)) was 100%. The kinase still bound, per cent of control (MKNK1 (human)) was 100%, the kinase still bound, per cent of control (PHKG2 (human)) was 78% and the kinase still bound, per cent of control (GAK (human)) was 100%. The kinase still bound, per cent of control (DAPK1 (human)) was 100%, the kinase still bound, per cent of control (TTK (human)) was 100% and the kinase still bound, per cent of control (CLK4 (human)) was 100%.
